pIC50: −log10 of the molar value.
Test system: Plasmodium berghei
Assay: Luciferase/luciferin-expressing antifolate-resistant parasites were used to infect a culture of HepG2 cells that were pre-incubated with compounds. Infected hepatocytes emit light due to the luciferase reaction. Assay results are presented as the percent inhibition of light emission compared to control. […]
Type: functional
Settings: sporozoite; for IC90: read-out: LUCIFERASE INFECTION ASSAY - IC90

Compound | IC90 [µM] | also measured
C=CCn1c(C)cc(C(=O)CSc2nc3ccccc3[nH]2)c1C | 0.467 | pIC50 (PBLUC_HILL_SLOPE 12.6, PBLUC_R_SQUARED 0.563, read-out: LUCIFERASE INFECTION ASSAY - IC50): 6.41
CN(C1=C(NC(=O)c2ccccc2)C(=O)c2ccccc2C1=O)C1CCS(=O)(=O)C1 (stereo not given) | > 10 | pIC50 (PBLUC_HILL_SLOPE 12.4, PBLUC_R_SQUARED 0.0349, read-out: LUCIFERASE INFECTION ASSAY - IC50): 5.03
Cc1cc(C)nc(-n2nc(C)cc2Nc2ccccc2)n1 | > 10 | pIC50 (PBLUC_HILL_SLOPE 12.8, PBLUC_R_SQUARED 0.114, read-out: LUCIFERASE INFECTION ASSAY - IC50): < 5.00
CCc1c(C(=O)NCC2CCS(=O)(=O)C2)cnn1-c1ccc(C)cc1 (stereo not given) | > 10 | pIC50 (PBLUC_HILL_SLOPE 12.8, PBLUC_R_SQUARED 0.197, read-out: LUCIFERASE INFECTION ASSAY - IC50): < 5.00
c1cncc(-c2cnc3sc(NCc4ccncc4)nn23)c1 | > 10.7 | pIC50 (PBLUC_HILL_SLOPE 12.5, PBLUC_R_SQUARED 0.401, read-out: LUCIFERASE INFECTION ASSAY - IC50): 5.00
CCOC(=O)CC(=O)CSc1nnc(-c2ccccc2Cl)n1-c1ccccc1F | 0.0166 | pIC50 (PBLUC_HILL_SLOPE 12.3, PBLUC_R_SQUARED 0.795, read-out: LUCIFERASE INFECTION ASSAY - IC50): 7.86
CC(C#N)(NC(=O)CN1CCN(S(=O)(=O)c2ccc(Cl)s2)CC1)C1CC1 (stereo not given) | > 10 | pIC50 (PBLUC_HILL_SLOPE 12.5, PBLUC_R_SQUARED 0.341, read-out: LUCIFERASE INFECTION ASSAY - IC50): 5.03
COc1ccccc1-n1c(SCC(=O)c2c[nH]c3ccccc23)nnc1-c1cccs1 | 0.134 | pIC50 (PBLUC_HILL_SLOPE 12.6, PBLUC_R_SQUARED 0.859, read-out: LUCIFERASE INFECTION ASSAY - IC50): 6.95
CC(=O)CSc1nnc(-c2ccc(C(C)(C)C)cc2)n1-c1ccc(Cl)cc1 | > 8.25 | pIC50 (PBLUC_HILL_SLOPE 12.6, PBLUC_R_SQUARED 0.0257, read-out: LUCIFERASE INFECTION ASSAY - IC50): 5.11
CCOC(=O)c1[nH]c2cc(OC)c(OC)cc2c1NC(=O)c1ccccc1OC | > 8.28 | pIC50 (PBLUC_HILL_SLOPE 12.7, PBLUC_R_SQUARED 0.193, read-out: LUCIFERASE INFECTION ASSAY - IC50): 5.09
CC(C)CN1C(=O)N(Cc2ccccc2)C2(CCN(C3Cc4ccccc4C3)CC2)C1=O | > 7.65 | pIC50 (PBLUC_HILL_SLOPE 12.6, PBLUC_R_SQUARED 0.313, read-out: LUCIFERASE INFECTION ASSAY - IC50): 5.14
NC(=O)c1cccc(-c2cn3c(-c4cccc(OC(F)(F)F)c4)cnc3cn2)c1 | 8.06 | pIC50 (PBLUC_HILL_SLOPE 12.4, PBLUC_R_SQUARED 0.473, read-out: LUCIFERASE INFECTION ASSAY - IC50): 5.17
Cc1c(C(=O)OC(C)C(=O)N2CCN(Cc3ccccc3)CC2)sc2nc3n(c(=O)c12)CCC3 (stereo not given) | > 10 | pIC50 (PBLUC_HILL_SLOPE 12.6, PBLUC_R_SQUARED 0.201, read-out: LUCIFERASE INFECTION ASSAY - IC50): 5.05
O=C(Nc1cc(-c2cccs2)nn1-c1ccc(I)cc1)C1CCC1 | > 7.34 | pIC50 (PBLUC_HILL_SLOPE 12.7, PBLUC_R_SQUARED 0.261, read-out: LUCIFERASE INFECTION ASSAY - IC50): 5.21
OCCNCCNCc1c(OCc2ccccc2Cl)ccc2ccccc12 | > 8.57 | pIC50 (PBLUC_HILL_SLOPE 12.5, PBLUC_R_SQUARED 0.654, read-out: LUCIFERASE INFECTION ASSAY - IC50): 5.13
COc1ccc(C(CNC(=O)c2cc3c(C)nn(-c4ccc(Cl)cc4)c3s2)N(C)C)cc1 (stereo not given) | 4.14 | pIC50 (PBLUC_HILL_SLOPE 12.4, PBLUC_R_SQUARED 0.574, read-out: LUCIFERASE INFECTION ASSAY - IC50): 5.46
Nc1ncc(-c2ccc(CO)cc2)cc1-c1ccc(F)c(Cl)c1 | > 10 | pIC50 (PBLUC_HILL_SLOPE 12.5, PBLUC_R_SQUARED 0.497, read-out: LUCIFERASE INFECTION ASSAY - IC50): 5.04
O=C(Nc1cccc(C(F)(F)F)c1)c1cccc(Cn2cc(C(F)(F)F)ccc2=O)c1 | > 7.49 | pIC50 (PBLUC_HILL_SLOPE 12.4, PBLUC_R_SQUARED 0.188, read-out: LUCIFERASE INFECTION ASSAY - IC50): 5.20
CC(C)c1ccc(-n2c(Sc3ccc(C(F)(F)F)cc3[N+](=O)[O-])nnc2-c2ccc(C(C)(C)C)cc2)cc1 | > 6.1 | pIC50 (PBLUC_HILL_SLOPE 12.8, PBLUC_R_SQUARED 0.26, read-out: LUCIFERASE INFECTION ASSAY - IC50): 5.28
CC(C)c1cc(NCc2ccccn2)n2ncc(-c3ccccc3)c2n1 | 3.94 | pIC50 (PBLUC_HILL_SLOPE 12.5, PBLUC_R_SQUARED 0.318, read-out: LUCIFERASE INFECTION ASSAY - IC50): 5.48

Compound | IC90 [µM] | also measured
Cc1ccc(C(=O)NC(C)C)n1C | 0.447 | pIC50 (PBLUC_HILL_SLOPE 12.7, PBLUC_R_SQUARED 0.475, read-out: LUCIFERASE INFECTION ASSAY - IC50): 6.42
Cc1ccc2nc(CN3CCN(C(c4ccc(F)cc4)c4ccc(F)cc4)CC3)cc(=O)n2c1 | 4.14 | pIC50 (PBLUC_HILL_SLOPE 12.7, PBLUC_R_SQUARED 0.219, read-out: LUCIFERASE INFECTION ASSAY - IC50): 5.46
CN(Cc1ccc2c(c1)OCCO2)C(=O)c1ccc(NC(=O)C23CC4CC(CC(C4)C2)C3)cc1 | > 10 | pIC50 (PBLUC_HILL_SLOPE 12.4, PBLUC_R_SQUARED 0.0833, read-out: LUCIFERASE INFECTION ASSAY - IC50): < 5.00
O=C(Nc1nc2cc(C(F)(F)F)ccc2n1Cc1ccco1)C1CCC1 | 4.08 | pIC50 (PBLUC_HILL_SLOPE 12.7, PBLUC_R_SQUARED 0.404, read-out: LUCIFERASE INFECTION ASSAY - IC50): 5.46
CCN1C(=O)N(CCN(C)C)C(=O)C12CCN(Cc1ccc3c(c1)c1ccccc1n3CC)CC2 | 6.84 | pIC50 (PBLUC_HILL_SLOPE 12.4, PBLUC_R_SQUARED 0.445, read-out: LUCIFERASE INFECTION ASSAY - IC50): 5.24
COc1cc(C2NCC(c3ccc(Cl)cc3Cl)c3c2[nH]c2ccccc32)ccc1OCC(C)C (stereo not given) | 3.76 | pIC50 (PBLUC_HILL_SLOPE 12.5, PBLUC_R_SQUARED 0.54, read-out: LUCIFERASE INFECTION ASSAY - IC50): 5.50
Cc1cc(S(=O)(=O)Oc2ccccc2C(N)=O)ccc1-n1cnnn1 | > 10 | pIC50 (PBLUC_HILL_SLOPE 12.6, PBLUC_R_SQUARED 0.0652, read-out: LUCIFERASE INFECTION ASSAY - IC50): 5.04
Fc1ccc(-c2csc3ncnc(NC4CCN(Cc5ccccc5)C4)c23)cc1 (stereo not given) | > 10 | pIC50 (PBLUC_HILL_SLOPE 12.7, PBLUC_R_SQUARED 0.103, read-out: LUCIFERASE INFECTION ASSAY - IC50): 5.04
CCC(C)NC(=O)c1c(NC(=O)C(C)Oc2ccccc2)nc2ccc(C)cn12 (stereo not given) | > 8.37 | pIC50 (PBLUC_HILL_SLOPE 12.7, PBLUC_R_SQUARED 0.125, read-out: LUCIFERASE INFECTION ASSAY - IC50): 5.10
Cc1ccc2[nH]c(-c3cccs3)c(CCC(=O)N(C)C3CCS(=O)(=O)C3)c2c1 (stereo not given) | 3.85 | pIC50 (PBLUC_HILL_SLOPE 12.5, PBLUC_R_SQUARED 0.681, read-out: LUCIFERASE INFECTION ASSAY - IC50): 5.49
CCC(C)NC(=O)c1c(NC(=O)c2cccc(C(F)(F)F)c2)nc2ccc(C)cn12 (stereo not given) | 2.99 | pIC50 (PBLUC_HILL_SLOPE 12.7, PBLUC_R_SQUARED 0.269, read-out: LUCIFERASE INFECTION ASSAY - IC50): 5.60
Cc1cc(=O)nc(N(C(=O)Nc2ccccc2)c2cccc(C(F)(F)F)c2)n1C(=O)Nc1ccccc1 | > 10 | pIC50 (PBLUC_HILL_SLOPE 12.5, PBLUC_R_SQUARED 0.105, read-out: LUCIFERASE INFECTION ASSAY - IC50): 5.03
CCCNC(=O)CN1CCN(c2nc(-c3cccs3)nc3sc(C)c(C)c23)CC1 | > 10 | pIC50 (PBLUC_HILL_SLOPE 12.5, PBLUC_R_SQUARED 0.18, read-out: LUCIFERASE INFECTION ASSAY - IC50): 5.02
Cc1n[nH]c(C(=O)NCc2ccc(OC(C)C)cc2)c1Br | > 10 | pIC50 (PBLUC_HILL_SLOPE 12.5, PBLUC_R_SQUARED 0.288, read-out: LUCIFERASE INFECTION ASSAY - IC50): 5.05
O=c1nc(CCc2ccc3c(c2)OCCO3)[nH]c2ccccc12 | 3.7 | pIC50 (PBLUC_HILL_SLOPE 12.5, PBLUC_R_SQUARED 0.668, read-out: LUCIFERASE INFECTION ASSAY - IC50): 5.51
NC(=O)c1ccc(-c2cc(-c3ccc(F)c(Cl)c3)cnc2N)cc1 | 4.41 | pIC50 (PBLUC_HILL_SLOPE 12.5, PBLUC_R_SQUARED 0.242, read-out: LUCIFERASE INFECTION ASSAY - IC50): 5.43
CN(C)c1cccc(-c2cnc3cnc(-c4cnn(C)c4)cn23)c1 | > 10.4 | pIC50 (PBLUC_HILL_SLOPE 12.7, PBLUC_R_SQUARED 0.283, read-out: LUCIFERASE INFECTION ASSAY - IC50): 5.05
CCOc1ccc(Oc2ccc(S(=O)(=O)Oc3ccccc3C(N)=O)cc2)cc1 | 3.39 | pIC50 (PBLUC_HILL_SLOPE 12.7, PBLUC_R_SQUARED 0.259, read-out: LUCIFERASE INFECTION ASSAY - IC50): 5.55
Cc1nc(NCc2ccc3c(c2)OCO3)c2c3c(sc2n1)CCCC3 | > 10 | pIC50 (PBLUC_HILL_SLOPE 12.4, PBLUC_R_SQUARED 0.761, read-out: LUCIFERASE INFECTION ASSAY - IC50): 5.05
COc1ccc(-c2nc(CN(c3ccccc3)S(=O)(=O)c3ccccc3)co2)cc1 | > 10 | pIC50 (PBLUC_HILL_SLOPE 12.4, PBLUC_R_SQUARED 0.25, read-out: LUCIFERASE INFECTION ASSAY - IC50): < 5.00

From ChEMBL document CHEMBL4483862, “Open-source discovery of chemical leads for next-generation chemoprotective antimalarials” (2018)
